Key:
Format in all cases: in vivo
[1] = test system: Scirpus juncoides; assay: Test Example 2: herbicidal activity, application during weed generation in submerged conditions (symbol B); settings: Table 23; application herbicide amount 320 g/ha; grade 0-5 by criteria of Test Example 1
How it was run: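 Read-out: herbicidal effect on each species rated on a visual scale 3 weeks after treatment. Plants were raised together from seed in flooded alluvial soil (4 cm water) at 25° C. to 30° C. and treated at one to two leaves by water-surface application of diluted emulsion.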

[2] = test system: Stellaria media; assay: Test Example 5: herbicidal effect by foliage application, plastic box (symbol P); settings: 320 g/ha, 3 weeks after application
How it was run: (§1)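 Sowing in sterilized diluvial soil, 14 days' greenhouse growth at 25° C. to 30° C., then uniform small-sprayer foliar application of aqueous emulsion dilution; plants scored three weeks afterwards.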

[3] = test system: Apera spica-venti; assay: Test Example 5: herbicidal effect by foliage application, plastic box (symbol L); settings: 320 g/ha, 3 weeks after application
How it was run: as §1

[4] = test system: Echinochloa crus-galli var. crus-galli; assay: Test Example 4: herbicidal effect by soil treatment (symbol H); settings: for H: Echinochloa crus-galli var. crus-galli, herbicidal effect grade: 320 g/ha
How it was run: (§2)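 Seeds were sown in sterilized diluvial soil, covered with about 1.5 cm of soil, and the soil surface was sprayed with a water-diluted emulsion of the compound at a predetermined rate. Plants grew in a greenhouse at 25° C. to 30° C.; effects were scored visually 3 weeks after application.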

[5] = test system: Galium spurium; assay: Test Example 4: herbicidal effect by soil treatment (symbol Q); settings: for Q: Galium spurium, herbicidal effect grade: 320 g/ha
How it was run: as §2

[6] = test system: Abutilon theophrasti; assay: Test Example 5: herbicidal effect by foliage application, plastic box (symbol M); settings: 320 g/ha, 3 weeks after application
How it was run: as §1

[7] = test system: Echinochloa oryzacola Vasing.; assay: Test Example 1: herbicidal activity, application before weed generation in submerged conditions (symbol A); settings: application herbicide amount 320 g/ha
How it was run: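 Scores run 0 to 5 by herbicidal ratio, with 5 meaning 90% or more and 0 meaning 5% or lower, read 3 weeks after treatment. Compound was applied as a diluted emulsion to the water surface of submerged alluvial-soil pots on the day weed seeds were sown.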

[8] = test system: corn; assay: Test Example 4: effect on crop by soil treatment (symbol c); settings: for c: corn, effect grade on crop: 320 g/ha
How it was run: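 The test used sterilized diluvial soil. Seed was set down in spots and overlaid with about 1.5 cm of soil before growth in a greenhouse kept at 25° C. to 30° C.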

[9] = test system: Veronica persica; assay: Test Example 5: herbicidal effect by foliage application, plastic box (symbol R); settings: 320 g/ha, 3 weeks after application
How it was run: as §1

[10] = test system: Avena fatua; assay: Test Example 5: herbicidal effect by foliage application, plastic box (symbol I); settings: 320 g/ha, 3 weeks after application
How it was run: as §1

[11] = test system: Galium spurium; assay: Test Example 5: herbicidal effect by foliage application, plastic box (symbol Q); settings: 320 g/ha, 3 weeks after application
How it was run: as §1

[12] = test system: rapeseed; assay: Test Example 4: effect on crop by soil treatment (symbol g); settings: for g: rapeseed, effect grade on crop: 320 g/ha
How it was run: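 Crop seeds, among them rice, wheat, beet and rapeseed, were sown in sterilized diluvial soil and covered with about 1.5 cm of soil. Boxes were kept in a greenhouse at 25° C. to 30° C. for plant growth.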

[13] = test system: Lolium multiflorum Lam.; assay: Test Example 5: herbicidal effect by foliage application, plastic box (symbol K); settings: 320 g/ha, 3 weeks after application
How it was run: as §1

[14] = test system: Amaranthus retroflexus; assay: Test Example 5: herbicidal effect by foliage application, plastic box (symbol N); settings: 320 g/ha, 3 weeks after application
How it was run: as §1

[15] = test system: Amaranthus retroflexus; assay: Test Example 4: herbicidal effect by soil treatment (symbol N); settings: for N: Amaranthus retroflexus, herbicidal effect grade: 320 g/ha
How it was run: as §2

[16] = test system: Cyperus difformis; assay: Test Example 3: herbicidal effect by foliage application, Wagner pot (symbol E); settings: application herbicide amount 320 g/ha
How it was run: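 Scoring took place 3 weeks after application, using fixed criteria. Plants had been raised from seed for 14 days at 25 to 30 °C in submerged alluvial soil before a diluted emulsion of the test compound was sprayed uniformly on the leaves.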

[17] = application herbicide amount 320 g/ha

Compound	Herbicidal effect grade, B: Scirpus juncoides [1]	P: Stellaria media, herbicidal effect (criteria 0-5) [2]	L: Apera spica-venti, herbicidal effect (criteria 0-5) [3]	H: Echinochloa crus-galli var. crus-galli, herbicidal effect grade [4]	Q: Galium spurium, herbicidal effect grade [5]	M: Abutilon theophrasti, herbicidal effect (criteria 0-5) [6]	Herbicidal effect grade, A: Echinochloa oryzacola Vasing. [7]	c: corn, effect grade on crop [8]	R: Veronica persica, herbicidal effect (criteria 0-5) [9]	I: Avena fatua, herbicidal effect (criteria 0-5) [10]	Q: Galium spurium, herbicidal effect (criteria 0-5) [11]	g: rapeseed, effect grade on crop [12]	K: Lolium multiflorum Lam., herbicidal effect (criteria 0-5) [13]	N: Amaranthus retroflexus, herbicidal effect (criteria 0-5) [14]	N: Amaranthus retroflexus, herbicidal effect grade [15]	other results
CC(CC1CC(O)=C(c2c(C)cc(C)cc2C)C1=O)=NOCC(C)Br (centres unmarked) [1-135]	4 (Herbicidal ratio of 70% or higher and lower than 90%)	1 (Herbicidal ratio of 5% or higher and lower than 20%)	5 (Herbicidal ratio of 90% or more (almost completely withered))	5 (Herbicidal ratio of 90% or more (almost completely withered))	0 (Herbicidal ratio of 5% or lower (almost no effect))	3 (Herbicidal ratio of 40% or higher and lower than 70%)	5 (Herbicidal ratio of 90% or more (almost completely withered))	0 (Herbicidal ratio of 5% or lower (almost no effect))	3 (Herbicidal ratio of 40% or higher and lower than 70%)	5 (Herbicidal ratio of 90% or more (almost completely withered))	0 (Herbicidal ratio of 5% or lower (almost no effect))	2 (Herbicidal ratio of 20% or higher and lower than 40%)	5 (Herbicidal ratio of 90% or more (almost completely withered))	0 (Herbicidal ratio of 5% or lower (almost no effect))	0 (Herbicidal ratio of 5% or lower (almost no effect))	–
CC(CC1CC(O)=C(c2c(C)cc(C)cc2C)C1=O)=NOCc1ccccc1Cl (centres unmarked) [1-113]	3 (Herbicidal ratio of 40% or higher and lower than 70%)	3 (Herbicidal ratio of 40% or higher and lower than 70%)	5 (Herbicidal ratio of 90% or more (almost completely withered))	0 (Herbicidal ratio of 5% or lower (almost no effect))	0 (Herbicidal ratio of 5% or lower (almost no effect))	1 (Herbicidal ratio of 5% or higher and lower than 20%)	5 (Herbicidal ratio of 90% or more (almost completely withered))	0 (Herbicidal ratio of 5% or lower (almost no effect))	4 (Herbicidal ratio of 70% or higher and lower than 90%)	4 (Herbicidal ratio of 70% or higher and lower than 90%)	0 (Herbicidal ratio of 5% or lower (almost no effect))	0 (Herbicidal ratio of 5% or lower (almost no effect))	5 (Herbicidal ratio of 90% or more (almost completely withered))	0 (Herbicidal ratio of 5% or lower (almost no effect))	0 (Herbicidal ratio of 5% or lower (almost no effect))	–
CON=C(CC1CC(O)=C(c2c(C)cc(-c3ccccc3)cc2C)C1=O)C1CC1 (mixture of isomers) [9-028]	4 (Herbicidal ratio of 70% or higher and lower than 90%)	–	–	–	–	–	–	–	–	–	–	–	–	–	–	P: Stellaria media, herbicidal effect grade [2]: 3 (Herbicidal ratio of 40% or higher and lower than 70%); L: Apera spica-venti, herbicidal effect grade [3]: 5 (Herbicidal ratio of 90% or more (almost completely withered)); Herbicidal effect grade, H: Echinochloa crus-galli var. crus-galli [4, 17]: 5 (Herbicidal ratio of 90% or more (almost completely withered)); Herbicidal effect grade, Q: Galium spurium [5, 17]: 0 (Herbicidal ratio of 5% or lower (almost no effect)); M: Abutilon theophrasti, herbicidal effect grade [6]: 1 (Herbicidal ratio of 5% or higher and lower than 20%); A (Echinochloa oryzacola Vasing.) herbicidal effect grade [7]: 5 (Herbicidal ratio of 90% or more (almost completely withered)); Effect on crop grade, c: corn [8, 17]: 1 (Herbicidal ratio of 5% or higher and lower than 20%); R: Veronica persica, herbicidal effect grade [9]: 4 (Herbicidal ratio of 70% or higher and lower than 90%); I: Avena fatua, herbicidal effect grade [10]: 4 (Herbicidal ratio of 70% or higher and lower than 90%); Q: Galium spurium, herbicidal effect grade [11]: 4 (Herbicidal ratio of 70% or higher and lower than 90%); Effect on crop grade, g: rapeseed [12, 17]: 4 (Herbicidal ratio of 70% or higher and lower than 90%); K: Lolium multiflorum Lam., herbicidal effect grade [13]: 5 (Herbicidal ratio of 90% or more (almost completely withered)); N: Amaranthus retroflexus, herbicidal effect grade [14]: 1 (Herbicidal ratio of 5% or higher and lower than 20%); Herbicidal effect grade, N: Amaranthus retroflexus [15, 17]: 0 (Herbicidal ratio of 5% or lower (almost no effect))
CC(CC1CC(O)=C(c2c(C)cc(C)cc2C)C1=O)=NOCc1ccc(F)cc1 (centres unmarked) [1-136]	4 (Herbicidal ratio of 70% or higher and lower than 90%)	1 (Herbicidal ratio of 5% or higher and lower than 20%)	5 (Herbicidal ratio of 90% or more (almost completely withered))	5 (Herbicidal ratio of 90% or more (almost completely withered))	0 (Herbicidal ratio of 5% or lower (almost no effect))	3 (Herbicidal ratio of 40% or higher and lower than 70%)	5 (Herbicidal ratio of 90% or more (almost completely withered))	0 (Herbicidal ratio of 5% or lower (almost no effect))	2 (Herbicidal ratio of 20% or higher and lower than 40%)	4 (Herbicidal ratio of 70% or higher and lower than 90%)	4 (Herbicidal ratio of 70% or higher and lower than 90%)	3 (Herbicidal ratio of 40% or higher and lower than 70%)	5 (Herbicidal ratio of 90% or more (almost completely withered))	–	0 (Herbicidal ratio of 5% or lower (almost no effect))	–
CON=C(C)CC1CC(OC(=O)N(C)CCCCCl)=C(c2c(C)cc(C)cc2C)C1=O (centres unmarked) [1-126]	–	0 (Herbicidal ratio of 5% or lower (almost no effect))	3 (Herbicidal ratio of 40% or higher and lower than 70%)	0 (Herbicidal ratio of 5% or lower (almost no effect))	0 (Herbicidal ratio of 5% or lower (almost no effect))	0 (Herbicidal ratio of 5% or lower (almost no effect))	4 (Herbicidal ratio of 70% or higher and lower than 90%)	0 (Herbicidal ratio of 5% or lower (almost no effect))	0 (Herbicidal ratio of 5% or lower (almost no effect))	3 (Herbicidal ratio of 40% or higher and lower than 70%)	0 (Herbicidal ratio of 5% or lower (almost no effect))	0 (Herbicidal ratio of 5% or lower (almost no effect))	5 (Herbicidal ratio of 90% or more (almost completely withered))	0 (Herbicidal ratio of 5% or lower (almost no effect))	0 (Herbicidal ratio of 5% or lower (almost no effect))	herbicidal effect on E, grade 0-5 [16]: 2 (Herbicidal ratio of 20% or higher and lower than 40%)
